These results are taken from patent US7737309B2, “Clathrate compound, method for controlling concentration of aqueous agricultural chemical active ingredient solution, and agricultural chemical formulation” (Nippon Soda Co., Ltd., priority 2004, dated 2010).

Structures can show the parent of a compound that is named as a salt. Where two headings read alike, the source gives them in different places.

For series [1] the following is noted: cited from earlier work.
Series [2] is described as follows: Measurement of saturated solubility. The series is classed as physicochemical. Conditions: for saturated solubility: after standing at 25° C. for 192 hours; for Concentration of acetamiprid: distilled water at 25° C. The protocol: After weighing a fixed amount of each of the Clathrate compounds 1 to 4 obtained in Examples 1 to 4 and an acetamiprid as a control in a measuring flask, distilled water at 25° C. was added to obtain an equal volume. After stoppering and up-and-down shaking for 5 times, the measuring flask was allowed to stand in an incubator at 25° C. After up-and-down shaking for 5 times followed by sampling with the passage of time, water at 25° C. was added to obtain an equal volume again, and sampling was carried out up to 192 hours. The concentration of acetamiprid in the sampled solution was measured by HPLC and then the saturated solubility was calculated.

In a further series the test system is striped flea beetle. Description: Test as a seed treatment agent used in combination with a synthetic pyrethroid agent (rapeseeds). Conditions: Treatment amount 500 g/100 kg of seeds. The series is classed as in vivo. The source says: Immediately after that, the vinyl bag was closed, and the rapeseeds were coated with the chemical by vigorously shaking for 30 seconds. These seeds were spread over a tray and then air-dried at room temperature overnight to obtain rapeseeds coated with 500 g of acetamiprid per 100 kg of seeds.
Immediately after that, the vinyl bag was closed, and the rapeseeds were coated with the chemical by vigorously shaking for 30 seconds. These seeds were spread over a tray and then air-dried at room temperature overnight to obtain rapeseeds coated with 500 g of bifenthrin and 500 g of acetamiprid per 100 kg of seeds.
The obtained seeds were seeded in a No. 2 pot containing alluvial soil and then cultivated in a greenhouse. […] 2 days after standing, the number of incidences of insect damage due to imagines of striped flea beetle of 3 plants in each experimental plot was counted.

Take `CNC(=O)Oc1cccc2c1OC(C)(C)O2` [bendiocarb, 2,2-dimethyl-1,3-benzodioxol-4-yl-methylcarbamate.hydrochloride]: in series [1] (25° C.), the aqueous solubility is given as 26000 ppm.
As to `CC(=NC#N)N(C)Cc1ccc(Cl)nc1.CO.Oc1ccc(C(c2ccc(O)cc2)C(c2ccc(O)cc2)c2ccc(O)cc2)cc1` [Clathrate compound 2], in series [2], the saturated solubility is given as 238 ppm. The Concentration of acetamiprid in series [2] (1 hour) is recorded as 72 ppm; in series [2] (3 hours) it was 79 ppm; in series [2] (24 hours), 161 ppm; in series [2] (48 hours) it was 200 ppm; in series [2] (72 hours), 217 ppm; in series [2] (192 hours), 238 ppm.
On to `COP(=O)(NC(C)=O)SC` (centres unmarked) [acephate, O,S-dimethyl-N-acetylphosphoroamide thioate], for which the aqueous solubility result in series [1] (temperature not given) is “about 650000 ppm”.
`CNC(=O)ON=C(C)SC` [methomyl, S-methyl-N-(methylcarbamoyloxy)thioacetimidate]: in series [1] (temperature not given), the aqueous solubility is listed as 58000 ppm.
For `CC(=NC#N)N(C)Cc1ccc(Cl)nc1.CCO.Oc1ccc(C(c2ccc(O)cc2)C(c2ccc(O)cc2)c2ccc(O)cc2)cc1` [Clathrate compound 3], in series [2], the saturated solubility was found to be 230 ppm. The Concentration of acetamiprid in series [2] (1 hour) was determined as 156 ppm; in series [2] (3 hours), 156 ppm; in series [2] (24 hours), 163 ppm; in series [2] (48 hours) it was 179 ppm; in series [2] (72 hours) it was 200 ppm; in series [2] (192 hours) it was 230 ppm.
For the molecule `CCSCc1ccccc1OC(=O)NC` [ethiofencarb, 2-ethylthiomethylphenylmethylcarbamate], the aqueous solubility in series [1] (20° C.) is reported as 1800 ppm.
For `ClC=CCCl` [D-D, 1,3-dichloropropene], in series [1] (temperature not given), the aqueous solubility is 2000 ppm.
In series [2], `CC(=NC#N)N(C)Cc1ccc(Cl)nc1.CC(=NC#N)N(C)Cc1ccc(Cl)nc1.Oc1ccc(C(c2ccc(O)cc2)C(c2ccc(O)cc2)c2ccc(O)cc2)cc1` [Clathrate compound 1] had a saturated solubility of 232 ppm. In addition, the Concentration of acetamiprid is 121 ppm in series [2] (1 hour); 134 ppm in series [2] (3 hours); 193 ppm in series [2] (24 hours); 210 ppm in series [2] (48 hours); 221 ppm in series [2] (72 hours); 232 ppm in series [2] (192 hours).
In series [2], `C/C(=N\C#N)N(C)Cc1ccc(Cl)nc1` [Acetamiprid, (E)-N1-[(6-chloro-3-pyridyl)methyl]-N2-cyano-N1-methylacetamidine, reference compound] registered a saturated solubility of 3807 ppm. Besides, the Concentration of acetamiprid is reported as 2,822 ppm in series [2] (1 hour); 3,273 ppm in series [2] (3 hours); 3,734 ppm in series [2] (24 hours); 3,776 ppm in series [2] (48 hours); 3,752 ppm in series [2] (72 hours); 3,807 ppm in series [2] (192 hours). In series [1] (25° C.), the aqueous solubility is on record as 4200 ppm.
Take `CN1COCN(Cc2cnc(Cl)s2)/C1=N\[N+](=O)[O-]` [thiamethoxam]: in series [1] (25° C.), the aqueous solubility is recorded as 4100 ppm.
As for `Cc1c(COC(=O)[C@@H]2[C@H](/C=C(\Cl)C(F)(F)F)C2(C)C)cccc1-c1ccccc1` (racemic) [Bifenthrin], in the series on striped flea beetle, the “Insecticidal ratio % after 15 days” value came to 75.4% and the “Number of incidences of insect damage/3 plants after 15 days” value was 98.
Consider `CCN(Cc1ccc(Cl)nc1)/C(=C/[N+](=O)[O-])NC` [nitenpyram, (E)-N-(6-chloro-3-pyridylmethyl)-N-ethyl-N′-methyl-2-nitrovinylidenediamine], for which the aqueous solubility entry in series [1] (temperature not given) is recorded as “about 2000 ppm”.
